Assay: Thermal stability, percentage of decomposition (GB/T 23800-2009, modified)
Type: physicochemical
Conditions: after 500 hours at 320° C.
Procedure: The thermal stability has been evaluated in the present invention by measuring, according to the GB/T 23800-2009 standard, the percentage of decomposition of the fluid. The test performed in the present example differs from the standard by the temperature and the duration of the test. According to the example, the percentage of decomposition of the fluid has been measured after 500 hours at 320° C.
The fluid of Ex. 3 according to the invention and defined above has been compared with other commercial fluids: an alkylbenzene fluid, a dibenzyltoluene isomer, a mineral base oil and a hydrotreated mineral base oil.

Thermal stability (% of decomposition): 6.9%
Substance: dibenzyltoluene isomer

From US11680196B2, “Use of biodegradable hydrocarbon fluids as heat-transfer media” (TOTAL MARKETING SERVICES, priority 2016, dated 2023)
